Data set [1] in a line: Population pharmacokinetic modeling and covariate analysis. The class given is in vivo, human.
For data set [2] the following is noted: in vivo.
The mark [3] stands for this setting: Base model (n=26), Bootstrap median (95% CI).
Setting [4] is: Base model (n=26), Estimate (CV %).
[5] abbreviates: Covariate model (LBM, n=26), Bootstrap median (95% CI).
The mark [6] stands for this setting: Covariate model (LBM, n=26), Estimate (CV %).

`C#Cc1cccc(Nc2ncnc3cc(OCCOC)c(OCCO)cc23)c1` [OSI-420]: the “θCLM, metabolite clearance” value is listed as 23.60 (4.76, 47.91) L/h in data set [1] (setting [3]); 21.5 (8.9) L/h in data set [1] (setting [4]); 27.80 (4.04, 55.60) L/h in data set [1] (setting [5]); 32.6 (10.4) L/h in data set [1] (setting [6]). Also, the “θV2, metabolite volume of distribution” value is 7.67 (0.09, 21.91) L in data set [1] (setting [3]); 7.18 (62.8) L in data set [1] (setting [4]); 8.99 (0.04, 26.11) L in data set [1] (setting [5]); 11.6 (12.1) L in data set [1] (setting [6]). Also, in data set [2], the “OSI-420 detection in plasma” value is reported as “ƛ OSI-420 was undetectable in one patient treated on Arm B”. In addition, in data set [2], the “measurable OSI-420 in plasma” value is recorded as “no measureable OSI-420”.

Values taken from publication PMC4180036 (Clinical pharmacology and therapeutics, 2014).
